The test system of assay [1] is M. catarrhalis in human blood-derived macrophages (BDMs). As to the kind of experiment: Colony forming unit assay in blood-derived macrophages infected with M. catarrhalis. Format: cell-based, Moraxella catarrhalis. As to conditions: MOI 0.5 or 1; defensin 1 12.5 µM or sarcotoxin 1 C 0.39 µM added 1 or 5 h post-infection; further 16 h; lysis with 1% saponin, plating; vs assays without peptide. The protocol:
The absolute number of bacterial cells after treatment with defensin 1 or sarcotoxin 1 C was determined by counting the colony forming units (CFUs). M. catarrhalis overnight cultures prepared as described above were grown to the mid-exponential phase (~5 x 10^8 cells/ml) in BHI medium before dilution to 2 × 10^7 cells/ml in PBS containing 0.15% gelatin, and blood-derived macrophages (BDMs) were infected with a multiplicity of infection (MOI) of 0.5 or 1. […] Cells were then incubated for an additional 16 h at 37°C and 5% CO2 and then lysed with 1% saponin. Lysates were plated on sheep blood agar and cultivated for a further 15 h at 37°C and 5% CO2 before manual counting of the colonies on each plate.
All donors gave informed written consent (Ethics approval number: 161/17). Human BDMs were cultured as previously described. Briefly, primary human monocytes were isolated from donor buffy coats by selection for CD14^+ cells using CD14 Microbeads (Miltenyi Biotec, Bergisch Gladbach, Germany). Monocytes were grown in RPMI1640 medium with 1% human AB serum at 37°C and 5% CO2 on ultra-low attachment plates (Sigma-Aldrich, Munich, Germany). After 6 days, differentiated macrophages were detached, seeded at the desired density and incubated for 24 h before further analysis.

A further assay has as its system M. catarrhalis. The experiment in a line: AMP inhibitory testing without macrophages, dilution and plating (Figure S1). Format: cell-based, Moraxella catarrhalis. How it is done: Colonies of M. catarrhalis were grown on sheep blood agar plates for 12 h at 37°C and 5% CO2 before transfer to brain heart infusion (BHI) medium (Carl Roth, Karlsruhe, Germany) at an initial concentration of 1.6 × 10^7 cells/ml (OD600 = 0.08) as determined using an Ultraspec 10 cell densitometer (Amersham BioSciences, Little Chalfont, UK). Bacteria were cultivated in a shaking incubator at 37°C until the concentration reached 1.2 × 10^8 cells/ml (OD600 = 0.6) and then diluted to 2 × 10^6 cells/ml (OD600 = 0.011). To establish the optimal concentration ranges for AMP activity, defensin 1 was prepared as a two-fold dilution series from 12.5 µM to 1.56 µM and was added to the bacterial cultures, which were incubated as above for a further 16 h. Untreated cultures were used as controls. The OD600 was measured automatically at 30-min intervals using an Infinite M200 Pro plate reader (Tecan Life Sciences, Männedorf, Switzerland). […] They were cultivated for a further 15 h at 37°C and 5% CO2 in serial dilution before manual counting of the colonies on each plate.

A further assay deals with E. coli. The experiment in a line: Growth kinetics of commensal E. coli. The settings on record: liquid LB medium, 37°C, OD600 every 30 min; defensin 1 12.5 µM, sarcotoxin 1 C 0.39 µM. In kind it is cell-based, Escherichia coli. The protocol: For the analysis of commensal bacteria, E. faecalis was grown on Columbia agar plates or in liquid BHI medium, and E. coli was grown on McConkey agar or in liquid LB medium. After overnight culture on agar plates at 37°C and 5% CO2, both species were transferred to liquid medium at an initial OD600 of 0.005. The cultures were maintained in a shaking incubator at 37°C, and the OD600 was measured automatically at 30-min intervals as above.

For another assay, the system named is Streptococcus pneumoniae. As to conditions: cited from earlier work. An excerpt: Among the 23 AMPs we tested, only defensin 1 was previously found to be effective against the Gram-positive pathogen Streptococcus pneumoniae. It is unclear whether the eﬃcacy of defensin 1 indeed lies in the structure of the peptide and whether other AMPs with different structures would also show activity against M. catarrhalis. We therefore also investigated L. sericata sarcotoxin 1 C, which has a linear α-helical structure without disulfide bridges.

The subject of assay [2] is commensal species (E. faecalis and E. coli). The settings on record: previous study; cited from earlier work. An excerpt: We furthermore tested the effect of defensin 1 and sarcotoxin 1 C on the commensals E. faecalis and E. coli. Selectivity of AMPs may provide an important therapeutic advantage over broad-spectrum antibiotics because AMPs targeting pathogens but not commensals would avoid the common side effects of antibiotic therapy. […] Sarcotoxin 1 C was previously shown to inhibit 90% of clinical multidrug-resistant isolates of Ent ...

Bridge positions count the residues as written; N and C are the ends.

Consider “H-VTCDLLSAEAKGVKVNHAACAAHCLLKRKRGGYCNKRRICVCRN-OH (disulfide 3-34, 20-40, 24-42 (inferred)) [Defensin 1]”, for which the “M. catarrhalis CFU count (bacterial burden) in infection assay of primary BDMs” value in assay [1] is given as “reduced the bacterial burden”. Besides, in the assay with M. catarrhalis (defensin 1 12.5 µM or sarcotoxin 1 C 0.39 µM in BHI, diluted in PBS with 0.15% gelatin, plated on sheep blood agar, 15 h, Figure S1), the “effect on bacterial growth upon dilution of the AMP by plating” value was “efficiently killed the bacteria”. Also, the “bactericidal or bacteriostatic capacity” value in the assay on M. catarrhalis (growth of M. catarrhalis after dilution of the AMP) is on record as “bactericidal”. Also, in the assay on E. coli, the “effect on growth of E. coli” value was “minor growth delay”. For the same substance, the “effective against Streptococcus pneumoniae” value with Streptococcus pneumoniae is “effective”. Besides, in assay [2], the “effect against commensal species (E. faecalis, E. coli)” value is “no effect”.
